Values quoted from earlier work in patent publication US20120149888A1, “SYNTHESIS OF ARA-2'-O-METHYL-NUCLEOSIDES, CORRESPONDING PHOSPHORAMIDITES AND OLIGONUCLEOTIDES INCORPORATING NOVEL MODIFICATIONS FOR BIOLOGICAL APPLICATION IN THERAPEUCTICS, DIAGNOSTICS, G- TETRAD FORMING OLIGONUCLEOTIDES AND APTAMERS” (priority 2009, published 2012).
Values joined by “and” are separate entries in the source; they are usually repeats but may differ in a detail not shown here. Equal entries are not always repeated. “Also recorded” adds a separate entry of the source. Where two headings read alike, the source gives them in different places.

What was measured:
[1] = tested on: 11 human tumor xenografts; settings: 11 xenografts
[2] = tested on: equilibrative NBMPR-sensitive nucleoside transporter (es); settings: growth-inhibitory concentrations
[3] = tested on: explants of intact rat colonic mucosa
L1210 TG/R = settings: Thioguanine-resistant L1210 TG/R
[4] = tested on: Ehrlich ascites resistant to 5-fluorodeoxyuridine (FUdR); settings: 5-Fluorodeoxyuridine-resistant Ehrlich ascites
Ehrlich ascites (AZU 1) = settings: 6-Azauracil-resistant Ehrlich ascites (AZU 1)
[5] = polarographically, aprotic conditions, in the presence of alpha-lipoic acid
AKR/r-AzCdR = settings: 5-Aza-2′-deoxycytidine-resistant AKR-r-AzCdr
AKR/r-AzCR = settings: 5-Azacytidine-resistant AKR/r-AzCR
L1210/MP(III) = settings: 6-Mercaptopurine-resistant L1210/MP(III)
Ehrlich ascites (EAC-R1) = settings: 6-Mercaptopurine-resistant Ehrlich ascites (EAC-R1)
Ehrlich ascites (ETGR1) = settings: Thioguanine-resistant Ehrlich ascites (ETGR1)
[6] = tested on: Lewis lung carcinoma cells; settings: in vivo
[7] = tested on: mouse and human tumor cells
Raji Burkitt's lymphoma = settings: rat, in vivo
Raji leukemia = settings: mouse, in vivo
[8] = tested on: seven tumors (three melanomas, one lung adenocarcinoma, one breast cancer, and two osteogenic sarcomas); settings: maximum tolerated dose, four weekly cycles of daily bolus i.v. injections for 5 days; lung carcinoma and all three malignant melanomas
[9] = tested on: nucleoside carrier-dependent transport; settings: in vitro
L1210-ara-C = L1210-ara-C (Mihich et al., 1970)
[10] = tested on: 13 human cancer cell lines; settings: for effect of tetrahydrouridine on antiproliferative activity: Cyd deaminase inhibitor
dCyd kinase = dCyd kinase (Homo sapiens, UniProt P27707)
human cancer xenograft = settings: in vivo
mouse leukemia L1210 = settings: L1210 cells
[11] = tested on: human nasopharyngeal KB cells
[12] = tested on: 36 human tumor cell lines
human tumors [13] = tested on: human tumors
human tumors [14] = settings: once, 3 times and 5 times weekly for 2 or 4 weeks
L1210/CA = settings: 1β-D-Arabinofuranosylcytosine-resistant L1210/CA
Sarcoma 180 = settings: 6-Mercaptopurine-resistant Sarcoma 180
[15] = tested on: P388/CPT45 top1-deficient cells
topoisomerase I (top1) = topoisomerase I (top1) (Homo sapiens, UniProt P11387); settings: gemcitabine incorporated immediately 3′ from a top1 cleavage site on the nonscissile strand
[16] = tested on: normal primary prostatic epithelial cells; settings: concentrations up to 100 nM
[17] = tested on: bone marrow granulopoietic-macrophage progenitor cells; settings: granulopoietic-macrophagic progenitor cells
[18] = tested on: drug-resistant P388 leukemias
[19] = tested on: human TT cell line derived from MTC; settings: 10, 25 and 50 microg/ml for 24 hours

Sequence of topoisomerase I (top1) (P11387 whole entry, species assumed): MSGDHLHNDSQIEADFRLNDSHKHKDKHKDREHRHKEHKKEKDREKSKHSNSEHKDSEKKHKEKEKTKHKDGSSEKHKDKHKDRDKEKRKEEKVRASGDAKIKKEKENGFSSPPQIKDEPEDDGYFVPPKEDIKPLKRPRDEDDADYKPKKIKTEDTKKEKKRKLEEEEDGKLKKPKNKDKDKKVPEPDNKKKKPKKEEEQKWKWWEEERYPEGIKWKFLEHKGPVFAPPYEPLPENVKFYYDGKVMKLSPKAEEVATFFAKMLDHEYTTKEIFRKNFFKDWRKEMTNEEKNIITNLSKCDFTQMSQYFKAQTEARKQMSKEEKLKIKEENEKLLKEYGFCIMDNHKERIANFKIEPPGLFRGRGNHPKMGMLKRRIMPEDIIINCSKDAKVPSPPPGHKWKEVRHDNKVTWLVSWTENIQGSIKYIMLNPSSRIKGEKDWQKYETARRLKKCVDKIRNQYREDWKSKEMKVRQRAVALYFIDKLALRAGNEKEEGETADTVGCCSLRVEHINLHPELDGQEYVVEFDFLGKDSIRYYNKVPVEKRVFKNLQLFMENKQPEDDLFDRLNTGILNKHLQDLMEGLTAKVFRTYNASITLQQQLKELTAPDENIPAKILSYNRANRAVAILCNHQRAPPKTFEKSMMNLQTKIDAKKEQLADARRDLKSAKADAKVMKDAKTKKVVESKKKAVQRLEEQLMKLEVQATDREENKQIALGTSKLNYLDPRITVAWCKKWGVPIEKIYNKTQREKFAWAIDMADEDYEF
Sequence of dCyd kinase (P27707 whole entry): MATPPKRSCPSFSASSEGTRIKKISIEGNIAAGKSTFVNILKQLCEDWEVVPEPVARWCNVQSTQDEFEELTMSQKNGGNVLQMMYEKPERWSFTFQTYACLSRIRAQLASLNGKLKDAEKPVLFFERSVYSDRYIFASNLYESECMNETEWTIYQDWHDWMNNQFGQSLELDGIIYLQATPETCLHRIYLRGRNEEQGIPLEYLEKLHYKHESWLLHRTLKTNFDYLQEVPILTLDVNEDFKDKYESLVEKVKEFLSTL

O=c1[nH]cc(F)c(=O)[nH]1 [5-fluorouracil]
human tumors with potent inhibition [1]: only one tumor
expression of es [2]: increases
incorporation of tritiated TdR into DNA [3]: not altered
levels of tritiated deoxyuridine [3]: reduced
Response to chemotherapeutic drugs: Cross-resistant (L1210 TG/R): 5-Fluorouracil
Response to chemotherapeutic drugs: Cross-resistant [4]: 5-Fluorouracil
Response to chemotherapeutic drugs: collaterally sensitive (Ehrlich ascites (AZU 1)): 5-Fluorouracil
Response to chemotherapeutic drugs: collaterally sensitive (Ehrlich ascites (AZU 1); listed as FU): collaterally sensitive

Nc1ncn([C@@H]2O[C@H](CO)[C@@H](O)[C@H]2O)c(=O)n1 [AzCR, 5-azacytidine]
index of potential carcinogenicity tg alpha [5]: 0.295
Response to chemotherapeutic drugs: Same as parent line (AKR/r-AzCdR): sensitive; also recorded: AKR-r-AzCdr AzCR

Nc1ncn([C@H]2C[C@H](O)[C@@H](CO)O2)c(=O)n1 [AzCdR, 5-aza-2′-deoxycytidine]
Response to chemotherapeutic drugs: Cross-resistant (AKR/r-AzCR): cross-resistant; also recorded: AzCdR

CSc1ncnc2c1ncn2[C@@H]1O[C@H](CO)[C@@H](O)[C@H]1O [Compound 6-MeMPR, 6-methyl thio-purine ribonucleoside]
Response to chemotherapeutic drugs: Same as parent line (L1210/MP(III)): retained sensitivity and 6-MeMPR
Response to chemotherapeutic drugs: Cross-resistant (Ehrlich ascites (EAC-R1)): partially cross-resistant and 6-MeMPR^b
Response to chemotherapeutic drugs: Cross-resistant (Ehrlich ascites (ETGR1)): partially cross-resistant and 6-MeMPR^b

[C-]#[N+][C@H]1[C@H](O)[C@@H](CO)O[C@H]1n1ccc(N)nc1=O [Compound 8, 2′-Deoxy-2′-isocyano-1-beta-D-arabinofuranosylcytosine]
tumor volume inhibition [6]: only moderate tumor volume inhibition
cytotoxicity [7]: moderately cytotoxic

O=c1[nH]c(=O)n([C@H]2C[C@H](O)[C@@H](CO)O2)cc1C(F)(F)F [Compound F3TdR, 5-trifluoromethyl-2′-deoxyuridine]
Response to chemotherapeutic drugs: Cross-resistant [4]: cross-resistant; also recorded: F3TdR

CCCCCCCC/C=C/CCCCCCCC(=O)OC[C@H]1O[C@@H](n2ccc(N)nc2=O)[C@@H](O)[C@@H]1O [Compound P-4055]
long-time survivors (>70 days) (Raji Burkitt's lymphoma): three of five
animals that survived (>80 days) (Raji leukemia): 8 of 10
tumor response [8]: partial or complete tumor regression
cellular sensitivity in presence of nitrobenzylmercaptopurine riboside and dipyridamol [9]: not

CC(=NNC(=N)N)c1ccc(NC(=O)Nc2ccc(C(C)=NNC(=N)N)cc2)cc1 [DDUG, 4′,4′-diacetyldipenylurea bis(guanylhydrazone)]
Response to chemotherapeutic drugs: Cross-resistant (L1210-ara-C): DDUG

C=C1[C@H](n2ccc(N)nc2=O)O[C@H](CO)[C@H]1O [DMDC, 2′-deoxy-2′-methylidenecytidine]
suppression of the antiproliferative activity of DMDC by dCyd [10]: up to 150 fold
effect of tetrahydrouridine on antiproliferative activity [10]: reduced
VmaxKm for dCyd kinase, lower than that for dCyd (dCyd kinase): 8 fold
efficacy in tumors with higher levels of Cyd deaminase (human cancer xenograft): highly effective
efficacy in tumors with lower levels of Cyd deaminase (human cancer xenograft): only slight activity

C#C[C@@]1(O)[C@@H](CO)O[C@@H](n2ccc(N)nc2=O)[C@@H]1O [ECyd, 1-(3-C-ethynyl-beta-D-ribo-pentofuranosyl)cytosine]
IC50 (mouse leukemia L1210): 16 nM
IC50 [11]: 28 nM
1050 values [12]: nanomolar to micromolar range
human tumors with potent inhibition [1]: 9 of 11
cytotoxicity (human tumors [13]; 24 and 72 h exposures): sufficiently potent cytotoxicity
cytotoxicity (human tumors [13]; 4 h exposure): fairly potent cytotoxicity
antitumor activity (human tumors [14]): strong antitumor activity without serious toxicity

C#C[C@@]1(O)[C@@H](CO)O[C@@H](n2ccc(=O)[nH]c2=O)[C@@H]1O [EUrd, 1-(3-C-ethynyl-beta-D-ribo-pentofuranosyl)uracil]
IC50 (mouse leukemia L1210): 130 nM
IC50 [11]: 29 nM
1050 values [12]: nanomolar to micromolar range
human tumors with potent inhibition [1]: 8 of 11

CC(C=NNC(=N)N)=NNC(=N)N [MGGH, methylglyoxal bis(guanylhydrazone)]
Response to chemotherapeutic drugs: Same as parent line (L1210/CA): MGGH
Response to chemotherapeutic drugs: Same as parent line (L1210-ara-C): MGGH

Nc1nc(N)c2ccc(CNc3ccc(C(=O)N[C@@H](CC(=O)O)C(=O)O)cc3)cc2n1 [Quinaspar]
Response to chemotherapeutic drugs: collaterally sensitive (Sarcoma 180): Quinaspar

Nc1ccn([C@@H]2O[C@H](CO)[C@@H](O)C2(F)F)c(=O)n1 [gemcitabine, 2′,2′difluoro-2′deoxycytidine]
resistance of P388/CPT45 top1-deficient cells to gemcitabine [15]: 5 fold
top1-mediated DNA cleavage (topoisomerase I (top1)): enhanced
dFdC concentration of maximal inhibition of proliferation and colony formation (LNCaP, PC-3 and DU-145; LNCaP, PC-3, DU-145): 30 nM
gemcitabine concentration inhibiting colony formation by two thirds (LNCaP, PC-3 and DU-145; prostatic tumor cells): about 3.5 nM
inhibitory effects in normal primary prostatic epithelial cells [16]: no inhibitory effects
gemcitabine concentration inhibiting colony formation by two thirds [17]: 9 nM
response rate with the drug alone (ovarian cancer; previously treated patients): around 13%
response rate for the drug alone (ovarian cancer; previously untreated patients with poor prognostic features): 24%
overall response rate (advanced sarcomas; 1250 mg/m(2) i.v. weekly × three, q28 days): 3%
median time-to progression (advanced sarcomas; in vivo): 2.1 months
patients who discontinued treatment due to toxicity/refusal (advanced sarcomas; in vivo): 14%
hematologic toxicities > or = Grade 3, patients (advanced sarcomas; leukopenia and thrombocytopenia): 32%
effect of tetrahydrouridine on antiproliferative activity [10]: increased to some extent
efficacy in tumors with higher levels of Cyd deaminase (human cancer xenograft): only slightly active
cross resistance to gemcitabine ([18]; P388 resistant to 1-beta-D-arabinofuranosylcytosine): cross resistant
cross resistance to gemcitabine ([18]; P388 resistant to vincristine, cyclophosphamide, melphalan, cisplatin, methotrexate): not cross resistant
cross resistance to gemcitabine ([18]; multidrug-resistant P388 (resistant to doxorubicin or etoposide)): no cross resistance
influence on proliferative activity of TT cells [19]: concentration-dependent inhibitory influence
